Source: patent US20040138301A1, “Chemical uncouplers for the treatment of obesity” (priority 2002, published 2004)
Read-outs that look alike come from different tables or passages of the source.

Legend:
[1] = tested on: HEP-G2 cells; test: cells; settings: for HEP-G2 Tox: human, 3 h
Experimental: Assay (I): Glucose utilisation in a human hepatocytes cell line (HEP-G2 cells)
The assay measures indirectly the activity of the respiratory chain in HEP-G2 cells by using D-(3-^3H(N))-glucose. The ^3H-proton will first be released during the metabolism of glucose where it will be incorporated into water. The water is thereafter separated from the D-(3-^3H(N))-glucose by evaporation. Finally, the radioactivity in the water is determined using a Topcounter.
HEP-G2 cells obtained from ATCC (Maryland, USA), are cultured in assay medium (MEM medium) with the following addition 1× non-essential amino acids (M7145, 2 mM glutamine, 100 units/ml penicillin and streptomycin, 0.0075% sodium bicarbonate, 1 mM sodium pyrovate and 0.5% BSA (Bovin Serum Albumin, Sigma Missouri, USA)) at 37° C. and 5% CO2. All media are obtained by Gibco (Life Technologies, Maryland, USA) where not otherwise mentioned.
At day zero the cells are harvested using trypsin-EDTA and washed in assay medium using centrifugation. […] The cells are then incubated at 37° C. and 5% CO2 overnight.
(§1) The next day the compounds to be tested are diluted in DMSO (Sigma, Missouri, USA) to 100 times final concentration. They are then diluted to a final concentration in assay medium containing 10 μCi/ml D-(3-^3H(N))-glucose (PerkinElmer Life Sciences Inc., Boston, USA). The medium is removed from the cells and 200 μl of the compound dilutions are added in duplicates. The cells are then incubated for another 3 hours at 37° C. and 5% CO2. Finally the cells are lysed by adding 50 μl 10% TCA (trichloroacetic acid). 300 μl of sterile water is then added to the 24-wells that surrounds the StripPlate wells. The plate is sealed with Top-seal-tape (Packard, PerkinElmer Life Sciences Inc., Boston, USA) and the plate is incubated in a heating cupboard at 50° C. to equilibrium the radioactive water formed in the respiratory chain into the water in the 24-well plate by evaporate. The plates incubate for 8 hours where the heating cupboard is turned off. The top seal is removed when the samples have reached room temperature. One ml scintillation liquid (Packard Microscient, PerkinElmer Life Sciences Inc., Boston, USA) is added to all the samples and the radioactivity is determined using a Topcounter (Packard, PerkinElmer Life Sciences Inc., Boston, USA). Non-specific activity is determined by evaporating 200 μl of the dilution medium containing the D-(3-^3H(N))-glucose into 300 μl sterile water, and total radioactivity is determined by counting 5 μl assay medium with 10 μCi/ml D-(3-^3H(N))-glucose.
The cpm (counts per minute) representing the non-specific radioactivity in the D-(3-^3H(N))-glucose is subtracted from all incubated values. Then mean basal value (samples without any compound added) is subtracted from the values of all stimulated samples (samples added different concentrations of the different test compounds). All these calculations are done using GraphPad Prism 3.0 (GraphPad software, Inc.). The maximal stimulation caused by the test compounds is calculated in percentage of maximal stimulation caused by either DNP or FCCP.
When calculating the concentration-response curve the maximal glucose utilisation stimulated by FCCP or DNP (subtracted non-specific and basal values) is converted to 100% and all the other values are expressed in percentage of this value. Using these percentage values and the compound concentration a concentration-response curve is calculated using sigmoidal dose-response (variable slope) equation (all the calculations are done by GraphPad Prism 3.0 (GraphPad software, Inc.));
Y=Bottom+(Top−Bottom)/(1+10^((LogEC50-X)*slope))
(§2) X is the logarithm of the molar concentration of the test compound.
Y is the degree of stimulation caused by the compound measured as a percentage of the maximal stimulation achieved by use of FCCP or DNP.
The results achieved with these concentrations are used to determine the slope in this area using the following equation: […]

[2] = tested on: FSK-4 cells; test: Assay (IV): Glucose utilisation in FSK-4 cells; format: cell-based; settings: FSK-4 cells; for EC50: glucose utilisation, 24 hours incubation, read-out: FSK4 EC50; for Emax: maximal efficacy relative to FCCP, read-out: FSK4 Emax (% of FCCP)
Experimental: Assay (IV): Glucose Utilisation in FSK-4 Cells
The assay measures indirectly the activity of the respiratory chain in FSK-4 cells by using D-(6-^3H(N))-glucose. The ^3H-proton will first be released in the TCA cyclus and transported to the respiratory chain where it will be incorporated into water. The water is thereafter separated from the D-(6-^3H(N))-glucose by evaporation. Finally, the radioactivity in the water is determined using a Topcounter.
FSK-4 cells obtained from ATCC (Maryland, USA), are cultured in growth medium (McCoy's medium with the following addition 100 units/ml penicillin and streptomycin and 10% FCS (fetal calf serum)) at 37° C. and 5% CO2. All media are obtained by Gibco (Life Technologies, Maryland, USA) where not otherwise mentioned.
At day zero the cells are harvested using trypsin-EDTA and washed in assay medium (MEM medium with the following addition 1× non-essential amino acids (M7145, 2 mM glutamin, 100 units/ml pencillin and streptomycin, 0.0075% sodium bicarbonate, 1 mM sodium pyrovate and 2% horse serum) using centrifugation. The cells are plated into single StripPlates wells (Corning B.V.Life Sciences, The Netherlands) that are placed into 24-well plates (Corning B.V.Life Sciences, The Netherlands) with a concentration of 1,5×10^4 cells/100 μl assay medium/well. The cells are then incubated at 37° C. and 5% CO2 overnight.
as §1, with “are diluted to different concentrations in DMSO” for “are diluted in DMSO”, “10 μCi/ml D-(6-^3H(N))-glucose (PerkinElmer Life” for “10 μCi/ml D-(3-^3H(N))-glucose (PerkinElmer Life”, “for another 24 hours at” for “for another 3 hours at”, “10% TCA (tri-chloroacetatic acid). 300” for “10% TCA (trichloroacetic acid). 300”, “containing the D-(6-^3H(N))-glucose into 300” for “containing the D-(3-^3H(N))-glucose into 300”, “10 μCi/ml D-(6-^3H(N))-glucose.” for “10 μCi/ml D-(3-^3H(N))-glucose.”
All calculations are done using GraphPad Prism 3.0 (GraphPad software, Inc.) From concentration-response curves the half maximal concentration (EC50) and maximal efficacy (Emax) are calculated using equation 1.
Y=Bottom+(Top−Bottom)/(1+10^((LogEc50-X)*slope))
as §2
Y is the degree of stimulation caused by the compound measured as percentage of the basal stimulation.
The calculated EC50 value is then used to determine the concentrations used in a study where the Hill slope is calculated.
From the double logarithmic plot of the increase in glucose utilisation and the compound concentration the Hill slope is calculated accordingly to equation 2.
It is presumed, that the maximal increase in the glucose utilisation (as measured in the FSK-4 glucose utilisation assay) is limited by the capacity of the metabolism.

[3] = Homo sapiens, HepG2, 3 h, read-out: HEP-G2 EC50, HEP-G2 cells, glucose utilisation, 3 hours incubation
[4] = Homo sapiens, HepG2, read-out: HEP-G2 Emax (% of FCCP), HEP-G2 cells, maximal stimulation relative to FCCP
[5] = Homo sapiens, HepG2, read-out: HEP-G2 Emax (μM), HEP-G2 cells, concentration at which Emax is achieved (CEmax)
[6] = Homo sapiens, HepG2, 3 h, read-out: HEP-G2 EC50
[7] = Homo sapiens, HepG2, read-out: HEP-G2 Emax (% of FCCP)
[8] = Homo sapiens, HepG2, read-out: HEP-G2 Emax (μM)

Row | SMILES | EC50 [1, 3] | EC50 [2] | EC50 ([1]; read-out: HEP-G2 EC50, HEP-G2 cells, glucose utilisation, 3 hours incubation) | Emax [1, 4] | EC (Emax) [1, 5] | Emax [2] | HEP-G2 Tox [1] | EC50 [1, 6] | Emax [1, 7] | EC (Emax) [1, 8]
1 | CC(C)(C)c1cc(C[P+](C2CCCCC2)(C2CCCCC2)C2CCCCC2)cc(C(C)(C)C)c1O [Example 12, (3,5-Di-Tert-Butyl-4-Hydroxybenzyl)Tricyclohexylphosphonium Bromide] | 1.2 µM | 0.3 µM |  | 70% | 10 µM | 85% | Tox 0.03 mM |  |  | 
2 | Cc1c(Br)cc(C(C)(C)C)c(O)c1C(=O)Nc1c(Cl)cc(Cl)cc1[N+](=O)[O-] [Example 54, 3-Bromo-5-Tert-Butyl-N-(2,4-Dichloro-6-Nitro-Phenyl)-6-Hydroxy-2-Methyl-Benzamide] | 0.52 µM | 0.3 µM |  | 90% | 3 µM | 80% |  |  |  | 
3 | Cc1c(Cl)cc(C(C)(C)C)c(O)c1C(=O)Nc1cc(C(F)(F)F)cc(C(F)(F)F)c1 [Example 47, N-(3,5-Bis-Trifluoromethyl-Phenyl)-3-Tert-Butyl-5-Chloro-2-Hydroxy-6-Methyl-Benzamide] | 0.7 µM | 1 µM |  | 75% | 10 µM | 90% | Tox 0.1 mM |  |  | 
4 | CCCC[P+](CCCC)(CCCC)Cc1cc(C(C)(C)C)c(O)c(C(C)(C)C)c1.[Br-] [Example 13, (3,5-Di-Tert-Butyl-4-Hydroxybenzyl)Tributylphosphonium Bromide] | 2.9 µM | 1 µM |  | 70% | 10 µM | 85% | Tox 0.03 mM |  |  | 
5 | CCOP(=O)(OCC)/C(C#N)=C\c1cc(C(C)(C)C)c(O)c(C(C)(C)C)c1 [Example 76, 3-(3,5-Di-Tertbutyl-4-Hydroxybenzylidene)-2-(Diethylphosphonate)-Propenenitrile] |  | 3.2 µM |  |  |  | 150% |  | 11 µM | 90% | 30 µM
6 | Cc1c(Cl)cc(C(C)(C)C)c(O)c1C(=O)Nc1ccc(Cl)c(C(F)(F)F)c1 [Example 42, 3-Tert-Butyl-5-Chloro-N-(4-Chloro-3-Trifluoromethyl-Phenyl)-2-Hydroxy-6-Methyl-Benzamide] | 3.3 µM | 1.1 µM |  | 89% | 10 µM | 75% |  |  |  | 
7 | Cc1c(Br)cc(C(C)(C)C)c(O)c1C(=O)Nc1cc(C(F)(F)F)ccc1C(F)(F)F [Example 61, N-(2,5-Bis-Trifluoromethyl-Phenyl)-3-Bromo-5-Tert-Butyl-6-Hydroxy-2-Methyl-Benzamide] | 0.87 µM | 1.1 µM |  | 105% | 10 µM | 105% |  |  |  | 
8 | CC(C)(C)c1cc([N+](=O)[O-])cc([N+](=O)[O-])c1O [Example 73, 2-Tert-Butyl-4,6-Dinitro-Phenol] |  | 7 µM |  |  |  | 100% |  | 7.3 µM | 70% | 300 µM
9 | Cc1c(Cl)cc(C(C)(C)C)c(O)c1C(=O)Nc1cc(C(F)(F)F)ccc1F [Example 48, 3-Tert-Butyl-5-Chloro-N-(2-Fluoro-5-Trifluoromethyl-Phenyl)-2-Hydroxy-6-Methyl-Benzamide] | 3.5 µM | 2.8 µM |  | 95% | 10 µM | 85% | 0.1 mM |  |  | 

The next lines start with results.

Row | EC50 [1, 3] | EC50 [2] | EC50 ([1]; read-out: HEP-G2 EC50, HEP-G2 cells, glucose utilisation, 3 hours incubation) | SMILES | Emax [1, 4] | EC (Emax) [1, 5] | Emax [2] | HEP-G2 Tox [1] | EC50 [1, 6] | Emax [1, 7] | EC (Emax) [1, 8]
10 | 7 µM | 1.1 µM |  | N#CC(C#N)=Cc1c(-c2ccc(Cl)cc2)[nH]c2ccccc12 [Example 19, 2-[[2-(4-Chlorophenyl)-1H-Indol-3-Yl]Methylene]Malononitrile] | 100% | 100 µM | 55% |  |  |  | 
11 | 0.7 µM | 0.3 µM |  | CC(C)(C)c1cc(C[P+](c2ccccc2)(c2ccccc2)c2ccccc2)cc(C(C)(C)C)c1O [Example 11, (3,5-Di-Tert-Butyl-4-Hydroxybenzyl)Triphenylphosphonium Bromide] | 75% | 3 µM | 90% | Tox 0.03 mM |  |  | 
12 | 2 µM | 3.6 µM | 1.4 µM | O=C(Nc1ccc([N+](=O)[O-])cc1Cl)c1cccc(-c2ccccc2)c1O [Example 44, 2-Hydroxy-Biphenyl-3-Carboxylic Acid (2-Chloro-4-Nitro-Phenyl)-Amide] | 94% |  | 90% |  |  |  | 
13 | 50 µM | 26 µM |  | Clc1ccc(-c2cc3ccccc3[nH]2)cc1 [Example 20, 2-(4-Chlorophenyl)-Indole] | 55% | 300 µM | 90% |  |  |  | 
